The test system of assay [1] is M13 CaM-BP. Put plainly: BLA-CaM chimera activity, nitrocefin assay with or without CaM-BP. Format: biochemical. The source says: FIG. 5. Construction of β-lactamase single insert CaM chimeras (BLA-CaM). (A) A schematic showing th β-lactamase (BLA) assay. BLA degrades the beta-lactam ring nitrocefin. which can be detected by a colour change from yellow to red, for example using a wavelength λ=482 nm (wavelengths of λ=486 nm and λ=480 nm may also be used). […] (C) Activity of purified BLA-CaM chimeras in the presence (interrupted line) or absence (solid line) of saturating concentrations of M13 peptide. The insertion position is indicated by a number and a letter denoting deleted amino acid.
FIG. 6. Construction of B-lactamase double insert CaM chimeras (2CaM-BLA). (A) Activity analysis of a solution of 250 nM BLA-CaM 41G in the presence of 50 μM nitrocefin and in the presence (interrupted line) or absence (solid line) of 1 μM of M13 CaM-BP. […]
A range of insertion mutants of the enzyme β-lactamase (BLA) and calmodulin were constructed. β-lactamase degrades the beta-lactam ring in nitrocefin, which can be detected by a colour change from yellow to red (FIG. 5A). The β-lactamase structure (PDB: 3gmw) was analysed and a range of Calmodulin (BLA-CaM) chimeras were designed. […] The activity of the wild type β-lactamase as well as the BLA-CaM chimeras was monitored in the presence or absence of CaM-BP (M13). […]

In assay [2] the test system is M13 CaM-BP. Put plainly: GDH-CaM chimera activity, PMS/DCPIP assay with or without CaM-BP. Format: biochemical. The conditions noted are these: 10 nM chimera, presence vs absence of 1 μM M13 CaM-BP. As to the method:
FIG. 11. Construction of a glucose dehydrogenase (GDH) AND gate biosensor. (A) GDH-CaM 48N activation by CaM-BP. activity analysis of a solution of 10 nM GDH-CaM 48N in the presence of 0.6 mM PMS as electron mediator and 60 μM DCPIP reporter dye in the presence of absence of 1 μM of M13 CaM-BP. (B) GDH-CaM 212N activation by CaM-BP. activity analysis of a solution of 10 nM GDH-CaM 212N in the presence of 0.6 mM PMS as electron mediator and 60 μM DCPIP reporter dye in the presence of absence of 1 μM of M13 CaM-BP. (C) GDH-CaM 48N_212N activation by CaM-BP. activity analysis of a solution of 10 nM GDH-CaM 48N_212N in the presence of 0.6 mM PMS as electron mediator and 60 μM DCPIP reporter dye in the presence of absence of 1 μM of M13 CaM-BP.
A range of insertion mutants of the enzyme glucose dehydrogenase (GDH) and calmodulin were constructed. […] The activity of GDH was monitored using 5-methylphenazinium methyl sulfate (PMS) as an electron mediator and 2,6-dichlorophenolindophenol (DCPIP) as a reporter dye, which upon reduction changes from blue to colourless. The GDH structure (PDB: 1c9u) was analysed and a library of CaM domain insertions was generated. […]
E.coli and purified to homogeneity. […] The activity of the wild type GDH as well as the GDH-CaM chimeras was monitored in the presence or absence of CaM-BP (M13). […]

As to “BLA-CaM 41G_197E: β-lactamase with calmodulin insertions at positions 41 and 197”, the “activity retained compared to the wild type enzyme” value in assay [1] (10 nM enzyme, saturating M13 CaM-BP) is on record as “about 25%”. Besides, in assay [1] (50 μM nitrocefin, presence vs absence of M13 CaM-BP), the dynamic range entry was “over 7000 fold”.

For “GDH-CaM 48N_212N: Glucose dehydrogenase with calmodulin insertions at positions 48 and 212”, in assay [2], the dynamic range result is “over 20 fold”.

These data come from patent publication US20250075249A1, “AND-GATE ALLOSTERIC PROTEIN-BASED SWITCHES” (QUEENSLAND UNIVERSITY OF TECHNOLOGY, priority 2022, published 2025).
